Reference: patent publication US20050203122A1, “Benzenesulfonic acid salts of clopidogrel, methods for preparing same, and pharmaceutical formulations thereof” (Helm AG, priority 2003, published 2005)
Counter-ions that a name gives are not always drawn. Like-named read-outs stand apart in the source and are kept apart here.

Tests used:
[1] = solid stored at 80° C. for 20 h
Protocol: 50 mg of the respective salts were weighed separately into volumetric flasks (100 ml) and stored at 80° C. for 20 h.

[2] = oxidizing, 5 h
[3] = acidic, 1N HCl, 5 h
[4] = neutral, water, 5 h
[5] = for total impurities relative to the clopidogrel base: alkaline, 1N NaOH, 5 h
Protocol: 50 mg of the respective salts were separately weighed into volumetric flasks (100 ml), and 2 ml of 1N NaOH were added. The flasks were then stored either at room temperature for 5 h or at 80° C. for 5 h. After the end of the particular experiment and, where appropriate, cooling to room temperature, 2 ml of 1N HCl were added to each flask, and the volume was made up to 100 ml with the mobile phase.

[6] = Decrease in active ingredient content of adsorbates on storage at 40° or 60° C. and 75% relative humidity for 15 days; format: physicochemical
From the text: The results are summarized in Table 5 below (content after 15 days (initial level standardized at 100%)).

[7] = overall, in particular at room temperature
[8] = 40° and 60° C., 75% relative humidity, 15 days
[9] = room temperature, hydrochloride

Compound	impurities by HPLC after heat [1] [%]	total impurities relative to the clopidogrel base ([2]; 3% H2O2, 80° C.) [%]	total impurities relative to the clopidogrel base ([2]; 3% H2O2, room temperature) [%]	total impurities relative to the clopidogrel base ([3]; 80° C.) [%]	total impurities relative to the clopidogrel base ([3]; room temperature) [%]	total impurities relative to the clopidogrel base ([4]; 80° C.) [%]	total impurities relative to the clopidogrel base ([4]; room temperature) [%]	total impurities relative to the clopidogrel base ([5]; 80° C.) [%]	total impurities relative to the clopidogrel base ([5]; room temperature) [%]	also measured
COC(=O)[C@H](c1ccccc1Cl)N1CCc2sccc2C1 [Clopidogrel Hydrogensulfate, clopidogrel hydrogensulfate, reference compound]	0.31	3.50	0.33	2.96	0.32	1.63	0.40	59.48	0.32	–
Clopidogrel besylate [Pure (free) salt]	–	–	–	–	–	–	–	–	–	content after 15 days (initial level standardized at 100%) ([6]; 40° C.): 103.32%; content after 15 days (initial level standardized at 100%) ([6]; 60° C.): 66.48%
clopidogrel benzenesulfonate [Clopidogrel Benzenesulfonate (Amorphous)]	11.52	2.94	0.83	2.36	0.64	3.01	0.85	25.04	0.64	stability compared with the hydrogensulfate and hydrochloride salts ([5]; alkaline conditions): considerably higher
clopidogrel benzenesulfonate [Clopidogrel Benzenesulfonate (Crystalline)]	4.52	–	–	2.76	0.14	4.18	0.19	28.05	0.14	stability compared with clopidogrel hydrogensulfate [7]: more stable; stability (decrease in content) compared with hydrogensulfate and hydrochloride [8]: best stability
COC(=O)[C@H](c1ccccc1Cl)N1CCc2sccc2C1 [Clopidogrel Hydrochloride, clopidogrel hydrochloride, reference compound]	–	–	–	–	–	–	–	–	–	impurities by HPLC after heat ([1]; hydrochloride): 32.43%; total impurities relative to the clopidogrel base ([2]; 3% H2O2, 80° C., hydrochloride): 4.16%; total impurities relative to the clopidogrel base ([2]; 3% H2O2, room temperature, hydrochloride): 1.83%; total impurities relative to the clopidogrel base ([3]; 80° C., hydrochloride): 3.31%; total impurities relative to the clopidogrel base [3, 9]: 1.86%; total impurities relative to the clopidogrel base ([4]; 80° C., hydrochloride): 4.33%; total impurities relative to the clopidogrel base [4, 9]: 1.84%; total impurities relative to the clopidogrel base ([5]; 80° C., hydrochloride): 72.89%; total impurities relative to the clopidogrel base [5, 9]: 1.86%
